The source of these data is patent publication US11091478B2 (Fochon Pharmaceuticals, Ltd., priority 2017, dated 2021).

Test [1] has as its system DOHH2 cells. The experiment in a line: Cell proliferation assay (MTS), DOHH2 cells, 120 h. It is filed as cell-based. In short, it runs like this:
(§1)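 Treatment lasts 72 h for RS4;11 and 120 h for DOHH2 cells seeded at 5000 per well in serum-containing RPMI-1640. A 2 h MTS step, halted with 10% SDS, precedes dual-wavelength absorbance reading and IC50 fitting.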

For test [2], the system named is RS4;11 cells. The experiment in a line: Cell proliferation assay (MTS), RS4;11 cells, 72 h. Format: cell-based. In short, it runs like this: as §1

Read-outs that look alike come from different tables or passages of the source.

A word on the IC50: it is the midpoint of a concentration-inhibition curve. A lower IC50 goes with inhibition by little substance. As for `CC1(C)CCC(CN2CCN(c3ccc(C(=O)NS(=O)(=O)c4cc5c(c([N+](=O)[O-])c4)N[C@@H](CC4CCN(S(C)(=O)=O)CC4)CO5)c(Oc4cnc5[nH]ccc5c4)c3)CC2)=C(c2ccc(Cl)cc2)C1` [Example 2-196, (S)-2-((1H-pyrrolo[2,3-b]pyridin-5-yl)oxy)-4-(4-((4′-chloro-5,5-dimethyl-3,4,5,6-tetra-hydro-[1,1′-biphenyl]-2-yl)methyl)piperazin-1-yl)-N-((3-((1-(methysulfonyl)piperidin-4-yl)methyl)-5-nitro-3,4-dihydro-2H-benzo[b][1,4]oxazin-7-yl)sulfonyl)benzamide], the half-inhibitory concentration (IC50) in test [1] (Homo sapiens, DOHH-2, 120 h) came to 94 nM; in test [2] (Homo sapiens, RS4-11, 72 h), 6 nM.

`CC1(C)CCC(CN2CCN(c3ccc(C(=O)NS(=O)(=O)c4cc5c(c([N+](=O)[O-])c4)N[C@H](Cc4ccccc4F)CO5)c(Oc4cnc5[nH]ccc5c4)c3)CC2)=C(c2ccc(Cl)cc2)C1` [Example 2-157, (R)-2-((1H-pyrrolo[2,3-b]pyridin-5-yl)oxy)-4-(4-((4′-chloro-5,5-dimethyl-3,4,5,6-tetra-hydro-[1,1′-biphenyl]-2-yl)methyl)piperazin-1-yl)-N-((3-(2-fluorobenzyl)-5-nitro-3,4-dihydro-2H-benzo[b][1,4]oxazin-7-yl)sulfo-nyl)benzamide]: the IC50 in test [1] (Homo sapiens, DOHH-2, 120 h) worked out at 39 nM; in test [2] (Homo sapiens, RS4-11, 72 h) it was 10 nM.

With `CC1(C)CCC(CN2CCN(c3ccc(C(=O)NS(=O)(=O)c4cc5c(c([N+](=O)[O-])c4)N[C@@H](CN4CCOCC4)CS5)c(Oc4cnc5[nH]ccc5c4)c3)CC2)=C(c2ccc(Cl)cc2)C1` [Example 3-10, (S)-2-((1H-pyrrolo[2,3-b]pyridin-5-yl)oxy)-4-(4-((4′-chloro-5,5-dimethyl-3,4,5,6-tetra-hydro-[1,1′-biphenyl]-2-yl)methyl)piperazin-1-yl)-N-((3-(morpholinomethyl)-5-nitro-3,4-dihydro-2H-benzo[b][1,4]thiazin-7-yl)sulfonyl)benzamide], the IC50 came to 32 nM in test [1] (Homo sapiens, DOHH-2, 120 h) and 11 nM in test [2] (Homo sapiens, RS4-11, 72 h).

With `C[C@@H]1CN(CC[C@@H]2COc3cc(S(=O)(=O)NC(=O)c4ccc(N5CCN(CC6=C(c7ccc(Cl)cc7)CC(C)(C)CC6)CC5)cc4Oc4cnc5[nH]ccc5c4)cc([N+](=O)[O-])c3N2)CCN1C` [Example 2-36, 2-((1H-pyrrolo[2,3-b]pyridin-5-yl)oxy)-4-(4-((4′-chloro-5,5-dimethyl-3,4,5,6-tetrahydro-[1,1′-biphenyl]-2-yl)methyl)piperazin-1-yl)-N-(((R)-3-(2-((R)-3,4-dimethylpiperazin-1-yl)ethyl)-5-nitro-3,4-dihydro-2H-benzo [b][1,4]oxazin-7-yl)sulfonyl)benzamide], the 50% inhibitory concentration (IC50) in test [1] (Homo sapiens, DOHH-2, 120 h) was 33 nM; in test [2] (Homo sapiens, RS4-11, 72 h), 7 nM.

In the case of `CC1(C)CCC(CN2CCN(c3ccc(C(=O)NS(=O)(=O)c4cc5c(c([N+](=O)[O-])c4)N[C@@H](CC4CCC(C)(O)CC4)CO5)c(Oc4cnc5[nH]ccc5c4)c3)CC2)=C(c2ccc(Cl)cc2)C1` (stereo partly drawn) [Example 2-216, (S)-2-((1H-pyrrolo[2,3-b]pyridin-5-yl)oxy)-4-(4-((4′-chloro-5,5-dimethyl-3,4,5,6-tetra-hydro-[1,1′-biphenyl]-2-yl)methyl)piperazin-1-yl)-N-((3-((4-hydroxy-4-methylcyclohex-yl)methyl)-5-nitro-3,4-dihydro-2H-benzo [b][1,4]oxazin-7-yl)sulfonyl)benzamide], the IC50 is 268 nM in test [1] (Homo sapiens, DOHH-2, 120 h) and 13 nM in test [2] (Homo sapiens, RS4-11, 72 h).

In the case of `CC1(C)CCC(CN2CCN(c3ccc(C(=O)NS(=O)(=O)c4cc5c(c([N+](=O)[O-])c4)N[C@@H](CC#N)CO5)c(Oc4cnc5[nH]ccc5c4)c3)CC2)=C(c2ccc(Cl)cc2)C1` [Example 2-115, (S)-2-((1H-pyrrolo[2,3-b]pyridin-5-yl)oxy)-4-(4-((4′-chloro-5,5-dimethyl-3,4,5,6-tetra-hydro-[1,1′-biphenyl]-2-yl)methyl)piperazin-1-yl)-N-((3-(cyanomethyl)-5-nitro-3,4-di-hydro-2H-benzo[b][1,4]oxazin-7-yl)sulfonyl-yl)benzamide], the concentration for half-maximal inhibition (IC50) in test [1] turned out to be 38 nM; in test [2] it was 6 nM.

Turning to `CC1(C)CCC(CN2CCN(c3ccc(C(=O)NS(=O)(=O)c4cc5c(c([N+](=O)[O-])c4)N[C@H](CCO)CS5)c(Oc4cnc5[nH]ccc5c4)c3)CC2)=C(c2ccc(Cl)cc2)C1` [Example 3-11, (R)-2-((1H-pyrrolo[2,3-b]pyridin-5-yl)oxy)-4-(4-((4′-chloro-5,5-dimethyl-3,4,5,6-tetra-hydro-[1,1′-biphenyl]-2-yl)methyl)piperazin-1-yl)-N-((3-(2-hydroxyethyl)-5-nitro-3,4-dihydro-2H-benzo[b][1,4]thiazin-7-yl)sulfonyl) benzamide], the half-maximal inhibitory concentration (IC50) is 16 nM in test [1] (Homo sapiens, DOHH-2, 120 h) and 11 nM in test [2] (Homo sapiens, RS4-11, 72 h).

With `CN(C)C[C@@H]1COc2cc(S(=O)(=O)NC(=O)c3ccc(N4CCN(CC5=C(c6ccc(Cl)cc6)CC(C)(C)CC5)CC4)cc3Oc3cnc4[nH]ccc4c3)cc([N+](=O)[O-])c2N1` [Example 2-7, (R)-2-((1H-pyrrolo[2,3-b]pyridin-5-yl)oxy)-4-(4-((4′-chloro-5,5-dimethyl-3,4,5,6-tetra-hydro-[1,1′-biphenyl]-2-yl)methyl)piperazin-1-yl)-N-((3-((dimethylamino)methyl)-5-nitro-3,4-dihydro-2H-benzo[b][1,4]oxazin-7-yl)sulfonyl)benzamide], the IC50 came to 95 nM in test [1] (Homo sapiens, DOHH-2, 120 h) and 72 nM in test [2] (Homo sapiens, RS4-11, 72 h).

For `CC1(C)CCC(CN2CCN(c3ccc(C(=O)NS(=O)(=O)c4cc5c(c([N+](=O)[O-])c4)N[C@H](CCN4CCN(C6COC6)CC4)CO5)c(Oc4cnc5[nH]ccc5c4)c3)CC2)=C(c2ccc(Cl)cc2)C1` [Example 2-38, (R)-2-((1H-pyrrolo[2,3-b]pyridin-5-yl)oxy)-4-(4-((4′-chloro-5,5-dimethyl-3,4,5,6-tetra-hydro-[1,1′-biphenyl]-2-yl)methyl)piperazin-1-yl)-N-((5-nitro-3-(2-(4-(oxetan-3-yl)piperazin-1-yl)ethyl)-3,4-dihydro-2H-benzo [b][1,4]oxazin-7-yl)sulfonyl)benzamide], the IC50 in test [1] (Homo sapiens, DOHH-2, 120 h) came to 27 nM; in test [2] (Homo sapiens, RS4-11, 72 h), 1 nM.

As to `COC(=O)N=S1(=O)CCN(CC[C@@H]2COc3cc(S(=O)(=O)NC(=O)c4ccc(N5CCN(CC6=C(c7ccc(Cl)cc7)CC(C)(C)CC6)CC5)cc4Oc4cnc5[nH]ccc5c4)cc([N+](=O)[O-])c3N2)CC1` [Example 2-130, methyl (R)-(4-(2-(7-(N-(2-((1H-pyrrolo[2,3-b]pyri-din-5-yl)oxy)-4-(4-((4′-chloro-5,5-dimethyl-3,4,5,6-tetrahydro-[1,1′-biphenyl]-2-yl)meth-yl)piperazin-1-yl)benzoyl)sulfamoyl)-5-nitro-3,4-dihydro-2H-benzo[b][1,4]oxazin-3-yl)ethyl)-1-oxido-1λ^6-thiomorpholin-1-ylidene)carbamate], the IC50 was 26 nM in test [1] (Homo sapiens, DOHH-2, 120 h) and 14 nM in test [2] (Homo sapiens, RS4-11, 72 h).

In the case of `CC1(C)CCC(CN2CCN(c3ccc(C(=O)NS(=O)(=O)c4cc5c(c([N+](=O)[O-])c4)N[C@@H](CN4CCOCC4)CO5)c(Oc4cnc5[nH]ccc5c4)c3)CC2)=C(c2ccc(Cl)cc2)C1` [Example 2-18, (S)-2-((1H-pyrrolo[2,3-b]pyridin-5-yl)oxy)-4-(4-((4′-chloro-5,5-dimethyl-3,4,5,6-tetra-hydro-[1,1′-biphenyl]-2-yl)methyl)piperazin-1-yl)-N-((3-(morpholinomethyl)-5-nitro-3,4-dihydro-2H-benzo[b][1,4]oxazin-7-yl)sulfonyl)benzamide], the IC50 is 9 nM in test [1] (Homo sapiens, DOHH-2, 120 h) and 4 nM in test [2] (Homo sapiens, RS4-11, 72 h).

Turning to `CCC(=O)N1CCN(C[C@@H]2COc3cc(S(=O)(=O)NC(=O)c4ccc(N5CCN(CC6=C(c7ccc(Cl)cc7)CC(C)(C)CC6)CC5)cc4Oc4cnc5[nH]ccc5c4)cc([N+](=O)[O-])c3N2)CC1` [Example 2-92, (R)-2-((1H-pyrrolo[2,3-b]pyridin-5-yl)oxy)-4-(4-((4′-chloro-5,5-dimethyl-3,4,5,6-tetra-hydro-[1,1′-biphenyl]-2-yl)methyl)piperazin-1-yl)-N-((5-nitro-3-((4-propionylpiperazin-1-yl)methyl)-3,4-dihydro-2H-benzo[b] [1,4]oxazin-7-yl)sulfonyl)benzamide], the half-maximal inhibitory concentration (IC50) worked out at 79 nM in test [1] (Homo sapiens, DOHH-2, 120 h) and 5 nM in test [2] (Homo sapiens, RS4-11, 72 h).

Turning to `CC1(C)CCC(CN2CCN(c3ccc(C(=O)NS(=O)(=O)c4cc5c(c([N+](=O)[O-])c4)N[C@@H](Cc4ccccn4)CO5)c(Oc4cnc5[nH]ccc5c4)c3)CC2)=C(c2ccc(Cl)cc2)C1` [Example 2-133, (S)-2-((1H-pyrrolo[2,3-b]pyridin-5-yl)oxy)-4-(4-((4′-chloro-5,5-dimethyl-3,4,5,6-tetra-hydro-[1,1′-biphenyl]-2-yl)methyl)piperazin-1-yl)-N-((5-nitro-3-(pyridin-2-ylmethyl)-3,4-dihydro-2H-benzo[b][1,4]oxazin-7-yl)sulfonyl)benzamide], the IC50 in test [1] (Homo sapiens, DOHH-2, 120 h) worked out at 8 nM; in test [2] (Homo sapiens, RS4-11, 72 h) it was 1 nM.

In the case of `CC1(C)CCC(CN2CCN(c3ccc(C(=O)NS(=O)(=O)c4cc5c(c([N+](=O)[O-])c4)N[C@@H](C4CCOCC4)CO5)c(Oc4cnc5[nH]ccc5c4)c3)CC2)=C(c2ccc(Cl)cc2)C1` [Example 2-187, (S)-2-((1H-pyrrolo[2,3-b]pyridin-5-yl)oxy)-4-(4-((4′-chloro-5,5-dimethyl-3,4,5,6-tetra-hydro-[1,1′-biphenyl]-2-yl)methyl)piperazin-1-yl)-N-((5-nitro-3-(tetrahydro-2H-pyran-4-yl)-3,4-dihydro-2H-benzo[b][1,4]oxazin-7-yl)sulfonyl)benzamide], the IC50 in test [1] (Homo sapiens, DOHH-2, 120 h) is 14 nM; in test [2] (Homo sapiens, RS4-11, 72 h), 2 nM.

For the compound `CN1CCC([C@@H]2COc3cc(S(=O)(=O)NC(=O)c4ccc(N5CCN(CC6=C(c7ccc(Cl)cc7)CC(C)(C)CC6)CC5)cc4Oc4cnc5[nH]ccc5c4)cc([N+](=O)[O-])c3N2)CC1` [Example 2-227, (R)-2-((1H-pyrrolo[2,3-b]pyridin-5-yl)oxy)-4-(4-((4′-chloro-5,5-dimethyl-3,4,5,6-tetra-hydro-[1,1′-biphenyl]-2-yl)methyl)piperazin-1-yl)-N-((3-(1-methylpiperidin-4-yl)-5-ni-tro-3,4-dihydro-2H-benzo[b][1,4]oxazin-7-yl)sulfonyl)benzamide], the half-inhibitory concentration (IC50) in test [1] (Homo sapiens, DOHH-2, 120 h) came out at 6 nM; in test [2] (Homo sapiens, RS4-11, 72 h), 1 nM.
